Calls of active or inactive are those of the source. The calls are words filed in the database; no cut-off is given here.
Key:
[1] = Tmax in C57BL/6J mouse at 20 mg/kg, iv measured up to 24 hrs by LC-MS/MS analysis; type: ADME, organism-based; details: in vivo
[2] = AUC (0 to infinity) in C57BL/6J mouse at 20 mg/kg, ip measured up to 24 hrs by LC-MS/MS analysis; type: ADME, organism-based; set-up: dose 20 mg/kg, time < 24 hrs, route ip; details: in vivo
[3] = Bioavailability in C57BL/6J mouse at 20 mg/kg, […] measured up to 24 hrs by LC-MS/MS analysis; type: ADME, organism-based; details: in vivo
[4] = test system: BV-2; assay: Antiinflammatory activity in LPS stimulated mouse BV-2 cells assessed as decrease in IDO1 expression pretreated with compound for 1 hr followed by LPS stimulation and measured after 24 hrs; type: functional, cell-based; details: dose 0.25-2 µM, time 25.0 hrs, DDE = dose-dependent effect
[5] = test system: Mus musculus; assay: Antiinflammatory activity in LPS induced mouse assessed as reduction in iNOS expression in hippocampus at 20 mg/kg, ip pretreated with compound administered once daily for 2 days followed by LPS injection by qPCR analysis; type: functional, organism-based; details: time 2.0 day
[6] = Acute toxicity in mouse assessed as pathological changes in heart at 10 to 20 mg/kg, ip administered once daily for 20 days by hematoxyin-eosin staining based analysis; type: organism-based; details: in vivo, 480 h, dose 10-20 mg/kg, time 20 day
[7] = Half life in C57BL/6J mouse at 20 mg/kg, iv measured up to 24 hrs by LC-MS/MS analysis; type: ADME, organism-based; details: in vivo
[8] = test system: Mus musculus; assay: Antiinflammatory activity in LPS induced mouse assessed as rescue of increase in IDO1 expression in activated microglia at 20 mg/kg, ip pretreated with compound administered once daily for 2 days followed by LPS injection by immunofluorescence analysis; type: functional, organism-based; details: time 2.0 day
[9] = test system: BV-2; assay: Antiinflammatory activity in LPS stimulated mouse BV-2 cells assessed as reduction in TNF-alpha expression at 0.5 to 2 uM pretreated with compound for 1 hr followed by LPS stimulation and measured after 24 hrs by qRT-PCR analysis; type: functional, cell-based; details: dose 0.5-2 µM, time 25.0 hrs
[10] = test system: Mus musculus; assay: Antidepressant activity in LPS induced mouse model assessed as rescue of decrease in immobility time at 20 mg/kg, ip pretreated with compound administered once daily for 2 days followed by LPS injection by tail suspension test; type: functional, organism-based; details: time 2.0 day
[11] = test system: Mus musculus; assay: Antiinflammatory activity in LPS induced mouse assessed as reduction in IL-1beta expression in hippocampus at 20 mg/kg, ip pretreated with compound administered once daily for 2 days followed by LPS injection by qPCR analysis; type: functional, organism-based; details: time 2.0 day
[12] = biological target: T1, Tryptophan 2,3-dioxygenase (Homo sapiens, UniProt P48775); assay: Inhibition of TDO (unknown origin) assessed as reduction in N-formylkynurenine formation using L-tryptophan as substrate incubated for 75 mins by UV absorbance based analysis
Target sequence in this assay (P48775 whole entry): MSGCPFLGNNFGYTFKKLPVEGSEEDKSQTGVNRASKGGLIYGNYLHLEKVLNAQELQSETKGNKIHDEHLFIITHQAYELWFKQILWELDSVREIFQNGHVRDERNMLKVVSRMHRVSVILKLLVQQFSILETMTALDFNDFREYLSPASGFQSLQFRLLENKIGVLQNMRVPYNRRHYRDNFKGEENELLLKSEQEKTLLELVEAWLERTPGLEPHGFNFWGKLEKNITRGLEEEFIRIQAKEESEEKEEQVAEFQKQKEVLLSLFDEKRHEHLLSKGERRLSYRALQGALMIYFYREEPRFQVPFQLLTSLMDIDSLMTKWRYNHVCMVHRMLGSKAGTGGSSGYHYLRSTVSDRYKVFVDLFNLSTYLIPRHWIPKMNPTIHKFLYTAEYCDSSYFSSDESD

[13] = test system: Mus musculus; assay: Downregulation of kynurenine level in brain of LPS induced mouse at 20 mg/kg, ip pretreated with compound administered once daily for 2 days followed by LPS injection by UHPLC-HRMS analysis; type: functional, organism-based; details: time 2.0 day
[14] = biological target: T1, Tryptophan 2,3-dioxygenase; assay: Inhibition of TDO (unknown origin) assessed as reduction in N-formylkynurenine formation using L-tryptophan as substrate at 50 uM incubated for 75 mins by UV absorbance based analysis relative to control
Target sequence in this assay (P48775 whole entry, looked up): as the sequence (P48775 whole entry) above

[15] = Acute toxicity in mouse assessed as reduction in body weight at 30 mg/kg, ip administered once daily and measured every day for 20 days; type: organism-based; details: in vivo, 480 h, time 20 day
[16] = MRT (0 to 24 hrs) in C57BL/6J mouse at 20 mg/kg, ip measured up to 24 hrs by LC-MS/MS analysis; type: ADME, organism-based; details: in vivo
[17] = Cmax in C57BL/6J mouse at 20 mg/kg, iv measured up to 24 hrs by LC-MS/MS analysis; type: ADME, organism-based; set-up: time < 24 hrs, dose 20 mg/kg, route iv; details: in vivo
[18] = Acute toxicity in mouse assessed as pathological changes in kidney at 10 to 20 mg/kg, ip administered once daily for 20 days by hematoxyin-eosin staining based analysis; type: organism-based; details: in vivo, 480 h, dose 10-20 mg/kg, time 20 day
[19] = MRT (0 to infinity) in C57BL/6J mouse at 20 mg/kg, ip measured up to 24 hrs by LC-MS/MS analysis; type: ADME, organism-based; details: in vivo
[20] = Acute toxicity in mouse assessed as change in body weight at 10 to 20 mg/kg, ip administered once daily and measured every day for 20 days; type: organism-based; details: in vivo, 480 h, dose 10-20 mg/kg, time 20 day
[21] = Cmax in C57BL/6J mouse at 20 mg/kg, ip measured up to 24 hrs by LC-MS/MS analysis; type: ADME, organism-based; set-up: dose 20 mg/kg, time < 24 hrs, route ip; details: in vivo
[22] = test system: BV-2; assay: Antiinflammatory activity in LPS stimulated mouse BV-2 cells assessed as reduction in iNOS expression at 0.5 to 2 uM pretreated with compound for 1 hr followed by LPS stimulation and measured after 24 hrs by qRT-PCR analysis; type: functional, cell-based; details: dose 0.5-2 µM, time 25.0 hrs
[23] = Acute toxicity in mouse assessed as pathological changes in liver at 10 to 20 mg/kg, ip administered once daily for 20 days by hematoxyin-eosin staining based analysis; type: organism-based; details: in vivo, 480 h, dose 10-20 mg/kg, time 20 day
[24] = Volume of distribution at steady state in C57BL/6J mouse at 20 mg/kg, iv measured up to 24 hrs by LC-MS/MS analysis; type: ADME, organism-based; details: in vivo, read-out: Vdss
[25] = AUC (0 to infinity) in C57BL/6J mouse at 20 mg/kg, iv measured up to 24 hrs by LC-MS/MS analysis; type: ADME, organism-based; set-up: dose 20 mg/kg, time < 24 hrs, route iv; details: in vivo
[26] = Acute toxicity in mouse assessed as pathological changes in lung at 10 to 20 mg/kg, ip administered once daily for 20 days by hematoxyin-eosin staining based analysis; type: organism-based; details: in vivo, 480 h, dose 10-20 mg/kg, time 20 day
[27] = test system: Mus musculus; assay: Antidepressant activity in LPS induced mouse model assessed as suppression of microglia activation in hippocampus at 20 mg/kg, ip pretreated with compound administered once daily for 2 days followed by LPS injection; type: functional, organism-based; details: time 2.0 day
[28] = AUC (0 to 24 hrs) in C57BL/6J mouse at 20 mg/kg, ip measured up to 24 hrs by LC-MS/MS analysis; type: ADME, organism-based; set-up: dose 20 mg/kg, time < 24 hrs, route ip; details: in vivo
[29] = test system: BV-2; assay: Antiinflammatory activity in LPS stimulated mouse BV-2 cells assessed as reduction in IL-1beta expression at 0.5 to 2 uM pretreated with compound for 1 hr followed by LPS stimulation and measured after 24 hrs by qRT-PCR analysis; type: functional, cell-based; details: dose 0.5-2 µM, time 25.0 hrs
[30] = MRT (0 to 24 hrs) in C57BL/6J mouse at 20 mg/kg, iv measured up to 24 hrs by LC-MS/MS analysis; type: ADME, organism-based; details: in vivo
[31] = test system: Mus musculus; assay: Antiinflammatory activity in LPS induced mouse assessed as rescue of increase in TNF-alpha expression in activated microglia at 20 mg/kg, ip pretreated with compound administered once daily for 2 days followed by LPS injection; type: functional, organism-based; details: time 2.0 day
[32] = biological target: T2, Indoleamine 2,3-dioxygenase 1 (Homo sapiens, UniProt P14902); assay: Inhibition of IDO1 (unknown origin) assessed as reduction in kynurenine production using L-tryptophan as substrate incubated for 1 hr by absorbance based microplate reader analysis
Target sequence in this assay (P14902 whole entry): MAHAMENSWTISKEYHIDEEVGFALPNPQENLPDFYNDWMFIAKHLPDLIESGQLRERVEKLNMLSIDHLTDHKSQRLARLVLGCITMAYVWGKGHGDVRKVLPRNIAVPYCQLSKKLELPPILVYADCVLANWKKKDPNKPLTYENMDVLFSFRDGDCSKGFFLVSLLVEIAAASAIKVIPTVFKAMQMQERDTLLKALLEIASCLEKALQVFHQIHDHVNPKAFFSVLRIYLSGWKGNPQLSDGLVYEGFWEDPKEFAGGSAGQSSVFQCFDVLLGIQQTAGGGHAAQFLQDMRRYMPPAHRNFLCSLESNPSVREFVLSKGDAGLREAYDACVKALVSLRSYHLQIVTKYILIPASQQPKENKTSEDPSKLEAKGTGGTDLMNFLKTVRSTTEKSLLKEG

[33] = Half life in C57BL/6J mouse at 20 mg/kg, ip measured up to 24 hrs by LC-MS/MS analysis; type: ADME, organism-based; details: in vivo
[34] = biological target: T2, Indoleamine 2,3-dioxygenase 1; assay: Inhibition of IDO1 (unknown origin) assessed as reduction in kynurenine production using L-tryptophan as substrate at 50 uM incubated for 1 hr by absorbance based microplate reader analysis relative to control
Target sequence in this assay (P14902 whole entry, looked up): as the sequence (P14902 whole entry) above

Compound: c1ccc2c(c1)[nH]c1c(-c3c[nH]cn3)nccc12
- Tmax [1]: 0.25 h
- AUC(0-inf) [2]: 4.46 µg·h/mL
- bioavailability [3]: 52.5%
- Activity [4]: Dde
- Activity [5]: Active
- Activity [6]: Non-Toxic
- half-life [7]: 2.31 h
- Activity [8]: Active
- Activity [9]: Active
- Activity [10]: Active
- Activity [11]: Active
- IC50 [12]: 1.15 µM
- Activity [13]: Active
- inhibition [14]: 92%
- Activity [15]: Toxic
- MRT last at 24 h [16]: 1.03 h
- Cmax [17]: 5.54 µg/mL
- Activity [18]: Non-Toxic
- MRT inf [19]: 1.04 h
- Activity [20]: Non-Toxic
- Cmax [21]: 3.88 µg/mL
- Activity [22]: Active
- Activity [23]: Non-Toxic
- Vd [24]: 4.35 L/kg
- AUC(0-inf) [25]: 8.56 µg·h/mL
- Activity [26]: Non-Toxic
- Activity [27]: Active
- AUC(0-t) at 24 h [28]: 4.49 µg·h/mL
- Activity [29]: Active
- MRT last at 24 h [30]: 1.81 h
- Activity [31]: Active
- IC50 [32]: 3.53 µM
- half-life [33]: 0.77 h
- inhibition [34]: 98%

Reference: ChEMBL document CHEMBL5137086, “Discovery of 1-(Hetero)aryl-β-carboline Derivatives as IDO1/TDO Dual Inhibitors with Antidepressant Activity” (J Med Chem, 2022)
